Measurements from patent US20010051628A1, “METHODS TO MODULATE THE RESISTANCE OF CELLS TO APOPTOSIS MEDIATED BY MUTANT EPIDERMAL GROWTH FACTOR RECEPTORS” (priority 1998, published 2001).

Key:
[1] = test system: human glioma cell lines A172, U563 or U251; settings: cited from earlier work
protein kinase C (PKC) = settings: cited from earlier work
U87MG.ΔEGFR cells [2] = experiment: Cell survival (colony forming efficiency) assay; format: cell-based, human; settings: drug 1 hr, then 10 to 12 days in fresh medium; colony count
Method: Western blot analysis of expression (lower) and auto-phosphorylation (upper) of wt EGFR (♦) and ΔEGFR (●) in U87MG, U87MG.ΔEGFR, U87MG.DK and U87MG.wtEGFR cells grown in media containing 10% serum. Low and similar levels of endogenous wt EGFR expression was also detected in U87MG, U87MG.ΔEGFR and U87MG.DK at longer exposures (data not shown). […] Cells were plated in triplicate 60-mm dishes and treated with media containing various concentrations of CDDP for 1 hr, followed by incubation with fresh media for 10 to 12 days. Numbers of colonies were counted after Giemsa staining. Results were reproduced in four independent experiments; bars, SID.
To determine the level of resistance of the cells to chemotherapeutic agents, colony forming efficiency assays were performed as described (20). Briefly, 400 or 700 cells were seeded in triplicate into dishes having a 60-mm diameter. On the next day cells were treated with various concentrations of CDDP for 1 hr or Taxol or vincristine for 2 hr, and then further incubated for 10 to 12 days in the fresh medium. The cells were fixed in methanol, stained with Giemsa solution (Sigma) and the number of colonies containing greater than 50 cells were counted. The survival fraction was calculated as the ratio of the colony-forming efficiency of drug-treated and untreated cells. […]

Bcl-XL = experiment: Western blot of Bcl-XL expression; format: cell-based, human
Method: Total cell lysates were prepared at the various time points indicated. For each sample, 20 μg of lysate protein was used. Results were reproduced in three independent experiments. […] For each sample, 20 μg of lysate was used. […] For control, the vehicle (DMSO) was used. Apoptosis rate determined by TUNEL assays of triplicate cover slips. […] Cell lysates were prepared in RIPA buffer (16), equal protein per sample was separated on SDS-polyacrylamide gels, and transferred to nitrocellulose membranes (BioRad, Hercules, Calif.). Proteins on the membranes were probed with antibodies to Bcl-XL (Transduction, Lexington, Ky.), poly(ADP-ribose) polymerase (PARP) (C2-10; […]

PARP = experiment: Western blot of proteolytic cleavage of PARP; format: cell-based, human
Method: (§1) (A) Total cell lysates were prepared 2 days after treatment with 5 μg/ml CDDP. Samples were assayed for protease activity using the peptide substrate, Ac-DEVD-pNA. […] Cells were also treated with the plasma membrane-soluble caspase inhibitor Z-Asp-CH2DCB (200 μM) prior to and during CDDP treatment. □, U87MG; ▪, U87MG.ΔEGFR;_, U87MG.DK;_, U87MG.wtEGFR. […] (B) Proteolytic cleavage of PARP after CDDP treatment. For each sample, 20 μg total clarified protein lysate was loaded on to SDS-PAGE gels, electrophoresed, transferred to membranes and probed with anti-PARP monoclonal antibodies. FL, full-length; CF, cleaved fragment.
Cell lysates were prepared in RIPA buffer (16), equal protein per sample was separated on SDS-polyacrylamide gels, and transferred to nitrocellulose membranes (BioRad, Hercules, Calif.). Proteins on the membranes were probed with antibodies to Bcl-XL (Transduction, Lexington, Ky.), poly(ADP-ribose) polymerase (PARP) (C2-10; Enzyme System Products, Dublin, Calif.), EGFR (C13) (15), or phosphotyrosine (4G10, Upstate Biotechnology, Lake Placid, N.Y.), and detected by chemiluminescence (Amersham).

U87MG.ΔEGFR cells [3] = experiment: In situ TUNEL labeling of apoptotic DNA fragmentation; format: cell-based, human
Method: Cells were seeded on cover slips, treated with 5 μg/ml of CDDP for 2 days, and then TUNEL assays were performed. The percent of TUNEL-positive cells induced by CDDP treatment was assessed by counting more than 400 cells per coverslip. □, U87MG; ▪, U87MG.ΔEGFR;_, U87MG.DK;_, U87MG.wtEGFR.
For each sample, 20 μg of lysate was used. […] For control, the vehicle (DMSO) was used. Apoptosis rate determined by TUNEL assays of triplicate cover slips.
Apoptotic cells were detected by use of terminal deoxynucleotidyl transferase mediated nick end labeling (TUNEL) of apoptotic DNA strand breaks as described (16). Apoptotic index was calculated as a ratio of apoptotic cell number to total tumor cell number within the areas by counting more than 400 cells in each coverslip.

caspase-3-like proteases = experiment: Caspase activity assay in lysates of treated cells (Ac-DEVD-pNA substrate); format: cell-based, human; settings: for caspase-3-like protease activity relative to basal activity: 48 hours after CDDP 5 μg/ml; for CDDP-induced caspase activation on co-treatment with tyrphostin: data not shown
Method: as §1
Cells were lysed in lysis buffer (ApoAlert, Clontech, Palo Alto, Calif.) for 15 min on ice, followed by centrifugation. Protease assays included 89 μl of reaction buffer (100 mM HEPES, pH 7.5, 20% v/v glycerol, 6 mM dithiothreitol, and 0.5 mM EDTA), I μl of 10 mM acetyl-Asp-Glu-Val-Asp-p-nitroanilide (Ac-DEVD-pNA) in DMSO (California Peptide Research, Inc., Napa, Calif.), and 10 μl of equal protein cell lysate. Samples were incubated at 37° C., and enzyme-catalyzed release of p-nitroanilide (pNA) was monitored at […] for 1 h in a microtiter plate reader (Molecular Devices Inc., Sunnyvale, Calif.). Aliquots of cell lysates diluted into the reaction buffer were first incubated with 10 μM caspase-3-like protease inhibitor, Ac-Asp-Glu-Val-Asp-aldehyde (Ac-DEVD-CHO) (Bachem, Torrance, Calif.), at 37° C. for 30 min. Values for picomoles of pNA released were calculated from those observed in OD405 values using a standard curve of pNA. One unit of protease activity was defined as the amount of enzyme required to release 1 pmol pNA/min at 37° C. For in vivo caspase inhibition studies, cells were cultured in the presence of peptide caspase inhibitor Z-Asp-CH2-DCB (Bachem).

glioma = settings: pre-treatment with LTC4; cited from earlier work
glioma cell = settings: cited from earlier work; for serum-driven cell growth: dose-dependent
U-87 glioma xenografts = settings: continuous intraperitoneal infusion; cited from earlier work
[4] = test system: malignant glioma cell lines; settings: cited from earlier work
tumors = settings: EGF plus cisplatin versus cisplatin alone; cited from earlier work
EGFR = settings: monolayers at the IC20 doses; cited from earlier work
[5] = test system: human glioblastoma cell lines; settings: read-out: IC20 for monolayer growth inhibition; cited from earlier work
[6] = test system: human glioblastoma spheroids; settings: cited from earlier work
[7] = test system: nitric oxide synthase (NOS); settings: C6 glial cells; cited from earlier work

CO[C@@H]1[C@H](N(C)C(=O)c2ccccc2)C[C@H]2O[C@]1(C)n1c3ccccc3c3c4c(c5c6ccccc6n2c5c31)C(=O)NC4 [CGP 41 251]
proliferation rate [1]: reduced | PKC activity (protein kinase C (PKC)): reduced

[NH2][Pt]([NH2])([Cl])[Cl] [CDDP, cisplatin]
IC50 value (survival) of U87MG.ΔEGFR cells relative to parental U87MG cells (U87MG.ΔEGFR cells [2]): 4.3 fold | Bcl-XL expression level during CDDP treatment (Bcl-XL; U87MG, U87MG.DK and U87MG.wtEGFR cells, continuous exposure for more than 24 hr): equally decreased | Bcl-XL expression level during CDDP treatment (Bcl-XL; U87MG.ΔEGFR cells): remained unchanged | cleavage of 116-kDa full-length PARP into 85-kDa fragment (PARP; U87MG, U87MG.DK and U87MG.wtEGFR cells, 24 hr after CDDP): observed | cleavage of 116-kDa full-length PARP into 85-kDa fragment (PARP; U87MG.ΔEGFR cells, 48 hr after CDDP): trace levels | proportion of TUNEL-positive cells, U87MG.ΔEGFR lower than U87MG, U87MG.DK or U87MG.wtEGFR (U87MG.ΔEGFR cells [3]; CDDP 5 μg/ml for 2 days, p<0.001): more than 5 fold lower | caspase-3-like protease activity relative to basal activity (caspase-3-like proteases; U87MG parental cells): 5.3 fold | caspase-3-like protease activity relative to basal activity (caspase-3-like proteases; U87MG.DK cells): 4.7 fold | caspase-3-like protease activity relative to basal activity (caspase-3-like proteases; U87MG.wtEGFR cells): 6.4 fold | caspase-3-like protease activity relative to basal activity (caspase-3-like proteases; U87MG.ΔEGFR cells): 2.0 fold

CCCCC/C=C\C\C=C/C=C/C=C/[C@@H](SC[C@H](NC(=O)CC[C@H](N)C(=O)O)C(=O)NCC(=O)O)[C@@H](O)CCCC(=O)O [LTC4]
survival of CDDP-treated animals (glioma): increased survival to a statistically significant degree

N#CC(C#N)=Cc1cc(O)c(O)c(O)c1 [RG 50875]
DNA synthesis induced by growth factors (EGF, PDGF; serum for the tyrphostins) (glioma cell): dose-dependently inhibit | cytotoxicity to the cells (glioma cell): no cytotoxic side effects | selectivity in blocking either EGF or PDGF signaling (glioma cell): no selectivity | serum-driven cell growth (glioma cell): inhibit

CN[C@@H]1C[C@H]2O[C@@](C)([C@@H]1OC)n1c3ccccc3c3c4c(c5c6ccccc6n2c5c31)C(=O)N[C@H]4O [UCN-01, seven-hydroxystaurosporine]
activity against U-87 glioma xenografts (U-87 glioma xenografts): significant activity | combination with 1,3-bis(2-chloroethyl)-1-nitrosourea, inhibition of glioma cell proliferation [4]: additive effects | combination with cisplatin, inhibition of glioma cell proliferation [4]: synergistic effects

EGF: epidermal growth factor administered with cisplatin (NSDSECPLSHDGYCLHDGVCMYIEALDKYACNCVVGYIGERCQYRDLKWWELR; Epidermal growth factor; UniProt P01133 971-1023, looked up)
cisplatin-induced tumor cell kill (final tumor volume) (tumors): significantly enhance

N#CC(C#N)=Cc1cc(O)c(O)c(O)c1 [tyrphostin A25]
EGFR-associated tyrosine phosphorylation (EGFR): no change | IC20 [5]: 3 µM | invasion ([6]; tyrphostin A25 at 3 μmol/L, third cell line): reduced invasion

COc1cc2ncnc(Nc3cccc(Cl)c3)c2cc1OC [AG1478]
Bcl-XL expression (Bcl-XL; U87MG.ΔEGFR cells, 15 μM): marked reduction | apoptosis induction, tyrphostin in combination with CDDP (U87MG.ΔEGFR cells [3]; U87MG.ΔEGFR cells, CDDP 5 μg/ml for 2 days, concentrations per FIG. 6B): significant apoptosis in a dose-dependent and synergistic manner | CDDP-induced caspase activation on co-treatment with tyrphostin (caspase-3-like proteases; U87MG.ΔEGFR cells): enhanced

COc1ccc(/C=C(\C#N)c2cccnc2)cc1OC [RG 13022]
EGF- and PDGF-induced DNA synthesis (glioma cell; 50 μmol/L): completely blocked | DNA synthesis induced by growth factors (EGF, PDGF; serum for the tyrphostins) (glioma cell): dose-dependently inhibit | cytotoxicity to the cells (glioma cell): no cytotoxic side effects | selectivity in blocking either EGF or PDGF signaling (glioma cell): no selectivity | serum-driven cell growth (glioma cell): inhibit

COc1cc2ncnc(Nc3cccc(Br)c3)c2cc1OC [AG1517]
CDDP-induced caspase activation on co-treatment with tyrphostin (caspase-3-like proteases; U87MG.ΔEGFR cells): enhanced

O=c1c(-c2ccc(O)cc2)coc2cc(O)cc(O)c12 [genistein]
EGFR-associated tyrosine phosphorylation (EGFR): no change | IC20 [5]: 10 µM | DNA synthesis induced by growth factors (EGF, PDGF; serum for the tyrphostins) (glioma cell): inhibited | cytotoxicity to the cells (glioma cell): cytotoxic | proliferation rate [1]: inhibited | infiltration ([6]; genistein at 10 μmol/L): completely inhibited | PKC activity (protein kinase C (PKC)): dose dependently reduced

CO[C@H]1[C@@H](OC)C[C@H](C)[C@@H](OC)C2=CC(=O)C=C(NC(=O)/C(C)=C/C=C\[C@H](OC)[C@@H](OC(N)=O)/C(C)=C/[C@@H]1C)C2=O [herbimycin A]
NOS induced by LPS and IFN-gamma [7]: suppressed

O=C(O)C[C@H](NC(=O)OCc1ccccc1)C(=O)COC(=O)c1c(Cl)cccc1Cl [Z-Asp-CH2-DCB]
effect on CDDP-induced apoptosis (U87MG.ΔEGFR cells [3]; cells treated with CDDP in the presence of the inhibitor, data not shown): significant inhibition | caspase-3-like protease activity of cells treated with CDDP in the presence of the inhibitor (caspase-3-like proteases; 200 μM prior to and during CDDP treatment, U87MG and sublines): did not exhibit an increase
